{"source": "patent US20160177395A1", "about": "“BIOMARKERS FOR THE PREDICTION OF RENAL INJURY” (priority 2007, published 2016)", "tested_on": "kidney tissues of treated or untreated rats", "assay": "Real-time qRT-PCR of marker transcripts in kidney tissue panel, discovery stage (Table 22)", "assay_type": "in vivo, rat", "parameters": "AI502869_DB71_seg0 normalized Real Time PCR expression: unit not given beside the values", "conditions": "rat kidney, listed as CadCl", "experimental": "Before RT preparation the RNA was treated with DNA-free (Ambion, cat. No. AM1906) DNase treatment and removal—according to manufacturer protocol. DNase procedure was repeated until no DNA is detected in a PCR reaction using the RNA samples.\nThe mixture is then incubated for 5 min at 65° C. and then quickly chilled on ice. Thereafter, 20 μl of 5× SuperscriptII first strand buffer (Invitrogen, Cat. No. Y00146), 9.6 μl 0.1M DTT (Invitrogen, Cat. No. Y00147) and 160 units RNasin (Promega, Cat. No. N251A) are added, and the mixture is incubated for 10 min at 25° C., followed by further incubation at 42° C. for 2 min. […] The resulting cDNA is diluted 1:20 in TE buffer (10 mM Tris pH=8, 1 mM EDTA pH=8).\ncDNA (5 μl), prepared as described above, is used as a template in Real-Time PCR reactions using the SYBR Green I assay (PE Applied Biosystem) with specific primers in 100 nM concentration if not indicated otherwise and UNG Enzyme (Eurogentech or equal) Amplification is effected as follows: 50° C. for 2 min, 95° C. for 10 min, and then 40 cycles of 95° C. for 15 sec, followed by 60° C. for 1 min (if not indicated otherwise). Amplification step is followed by dissociation step. Detection is performed by using the PE Applied Biosystem SDS 7000. The cycle in which the reactions achieved a threshold level (Ct) of fluorescence is registered and is used to calculate the relative transcript quantity in the RT reactions. Non-detected samples are assigned Ct value of 41 and are calculated accordingly. The relative quantity is calculated using the equation Q=efficiencŷ-Ct. The efficiency of the PCR reaction is calculated from a standard curve, created by using serial dilutions of several reverse transcription (RT) reactions. To minimize inherent differences in the RT reaction, the resulting relative quantities are normalized to normalization factor calculated as follows: […]\nThe relative quantity (Q) of each housekeeping gene in each sample is calculated as described above. In order to calculate the “relative Q relative to MED” each Q for each HSKP gene is divided by the median quantity of this gene in all panel samples. To finally achieve the normalization factor of each sample the geometric mean of all four “relative Q relative to MED” was calculated. The normalization factor was then used for further calculations.\nThe markers of the present invention were tested with regard to their expression in a panel of kidney tissues samples from treated and control rats. Unless otherwise noted, all experimental data relates to the novel polynucleotides and proteins of the present invention, named according to the segment being tested (as expression was tested through RT-PCR as described). Tests were then performed as described in the “Materials and Experimental Procedures” section above.\nThe qRT-PCR measurements were normalized according to each samples normalization factor as described in “RT Preparation and Real-Time qRT-PCR Analysis” and further multiplied by a constant factor for ease of viewing.", "key": {"[1]": {"conditions": "day5, individual animals (F and M)"}, "[2]": {"conditions": "day28, individual animals (F and M)"}}, "note": "Where “and” joins values, the source holds several entries; their conditions need not be identical. Equal entries are not always repeated.", "data": [{"smiles": "[Cl][Cd][Cl]", "note": "[Cadmium chloride]", "values": [{"measurement": "AW919147_DB71_seg0 normalized Real Time PCR expression", "setting": "day1, individual animals", "result": "1 (2×) and 1.21 and 0.76 and 1.1 and 1.02"}, {"measurement": "BI293562_DB71_seg2 normalized Real Time PCR expression", "setting": "day1, individual animals", "result": "0.36 and 0.4 and 0.61 and 0.5 and 0.51 and 0.39"}, {"measurement": "H31045_DB71_seg5 normalized Real Time PCR expression", "setting": "day1, individual animals", "result": "1.97 and 0.39 (2×) and 0.19 (2×) and 0.18"}, {"measurement": "H31799_DB71_seg23 normalized Real Time PCR expression", "setting": "day1, individual animals", "result": "1 (2×) and 1.24 and 0.91 and 0.9 and 1.15"}, {"measurement": "H31883_DB71_seg13 normalized Real Time PCR expression", "setting": "day1, individual animals", "result": "0.73 and 0.63 and 0.87 and 0.65 and 0.71 and 0.78"}, {"measurement": "H33998_DB71_seg19 normalized Real Time PCR", "setting": "[1]", "result": "2 and 0.82 and 1.39 and 1.36 and 1.64"}, {"measurement": "MUSCYCG1R_DB81_seg15-17 normalized Real Time PCR", "setting": "[1]", "result": "1.72 and 1.13 and 1.2 and 0.97 and 1.15"}, {"measurement": "RATLRFI_DB71_seg9 normalized Real Time PCR", "setting": "[1]", "result": "0.35 and 0.31 and 0.17 and 0.18 and 0.29"}, {"measurement": "RATRAB13X_DB71_seg11-13 normalized Real Time PCR", "setting": "[1]", "result": "0.95 and 0.9 and 0.75 (2×) and 0.62"}, {"measurement": "RNU24174_DB71_seg8 normalized Real Time PCR", "setting": "[1]", "result": "0.33 and 0.27 and 0.12 (2×) and 0.13"}, {"measurement": "W41270_DB81_seg11 normalized Real Time PCR", "setting": "[1]", "result": "2.49 and 1.17 and 1.02 and 1.43 and 1.52"}, {"measurement": "W64472_DB81_seg2 normalized Real Time PCR", "setting": "[1]", "result": "1.65 and 0.78 and 2.23 and 1.89 and 1.63"}, {"measurement": "W83813_DB81_seg27 normalized Real Time PCR", "setting": "[1]", "result": "3.79 and 1.59 and 1.48 and 1.67 and 1.76"}, {"measurement": "AA686189_DB71_seg6 normalized Real Time PCR expression", "setting": "day5, individual animals", "result": "0.47 and 0.29 and 0.39 and 0.5 and 0.38"}, {"measurement": "AA799594_DB71_seg0 normalized Real Time PCR expression", "setting": "day5, individual animals", "result": "1.12 and 0.9 and 1.23 and 0.98 and 1.01"}, {"measurement": "AA964541_DB71_seg0 normalized Real Time PCR expression", "setting": "day5, individual animals", "result": "0.29 and 0.27 and 0.42 (2×) and 0.41"}, {"measurement": "AI045075_DB71_seg6 normalized Real Time PCR expression", "setting": "day5, individual animals", "result": "0.98 and 0.49 and 0.85 and 0.81 and 0.83"}, {"measurement": "AI454051_DB71_seg0 normalized Real Time PCR expression", "setting": "day5, individual animals", "result": "1.54 and 1.35 and 0.84 and 0.68 and 0.92"}, {"measurement": "AI502869_DB71_seg0 normalized Real Time PCR expression", "setting": "day5, individual animals", "result": "0.94 and 0.73 and 0.69 and 0.68 and 0.85"}, {"measurement": "AW919147_DB71_seg0 normalized Real Time PCR expression", "setting": "day5, individual animals", "result": "1.06 and 1.86 and 1.3 and 0.94 and 1"}, {"measurement": "BI293562_DB71_seg2 normalized Real Time PCR expression", "setting": "day5, individual animals", "result": "0.43 and 0.63 and 0.48 and 0.88 and 0.78"}, {"measurement": "H31045_DB71_seg5 normalized Real Time PCR expression", "setting": "day5, individual animals", "result": "0.56 and 0.32 and 0.42 and 0.4 and 0.46"}, {"measurement": "H31799_DB71_seg23 normalized Real Time PCR expression", "setting": "day5, individual animals", "result": "0.83 and 0.99 and 1.17 and 0.98 and 0.94"}, {"measurement": "H31883_DB71_seg13 normalized Real Time PCR expression", "setting": "day5, individual animals", "result": "0.87 and 0.86 and 0.83 and 0.78 and 0.64"}, {"measurement": "H33998_DB71_seg19 normalized Real Time PCR", "setting": "[2]", "result": "1.26 and 0.59 and 0.43 and 0.45 and 0.26 and 0.41"}, {"measurement": "MUSCYCG1R_DB81_seg15-17 normalized Real Time PCR", "setting": "[2]", "result": "0.88 and 0.71 and 0.65 and 0.72 and 0.44 and 0.58"}, {"measurement": "RATLRFI_DB71_seg9 normalized Real Time PCR", "setting": "[2]", "result": "0.66 and 0.85 and 1.78 and 0.28 and 0.67 and 0.56"}, {"measurement": "RATRAB13X_DB71_seg11-13 normalized Real Time PCR", "setting": "[2]", "result": "1.37 and 0.92 and 0.96 and 1.11 and 1.08 and 0.88"}, {"measurement": "RNU24174_DB71_seg8 normalized Real Time PCR", "setting": "[2]", "result": "0.21 and 0.45 and 1.21 and 0.25 (2×) and 0.39"}, {"measurement": "W41270_DB81_seg11 normalized Real Time PCR", "setting": "[2]", "result": "0.86 and 0.55 and 0.83 and 0.33 and 0.27 and 0.39"}, {"measurement": "W64472_DB81_seg2 normalized Real Time PCR", "setting": "[2]", "result": "0.89 and 0.55 and 0.43 and 0.67 and 0.47 and 0.57"}, {"measurement": "W83813_DB81_seg27 normalized Real Time PCR", "setting": "[2]", "result": "0.95 and 0.64 and 0.46 (2×) and 0.34 and 0.53"}, {"measurement": "AA686189_DB71_seg6 normalized Real Time PCR expression", "setting": "day28, individual animals", "result": "0.64 and 0.58 and 1.94 and 0.4 and 0.51 and 0.82"}, {"measurement": "AA799594_DB71_seg0 normalized Real Time PCR expression", "setting": "day28, individual animals", "result": "1.14 and 0.88 and 0.37 and 0.66 and 0.77 and 0.83"}, {"measurement": "AA964541_DB71_seg0 normalized Real Time PCR expression", "setting": "day28, individual animals", "result": "0.32 (2×) and 0.42 and 1.72 and 0.55 and 0.72"}, {"measurement": "AI045075_DB71_seg6 normalized Real Time PCR expression", "setting": "day28, individual animals", "result": "1.72 and 1.15 and 0.86 and 0.75 and 0.63 and 0.71"}, {"measurement": "AI454051_DB71_seg0 normalized Real Time PCR expression", "setting": "day28, individual animals", "result": "0.79 and 1.05 and 0.54 and 1.29 and 1.31 and 0.75"}, {"measurement": "AI502869_DB71_seg0 normalized Real Time PCR expression", "setting": "day28, individual animals", "result": "0.73 and 1.22 and 0.44 and 2.47 and 2.93 and 1.18"}, {"measurement": "AW919147_DB71_seg0 normalized Real Time PCR expression", "setting": "day28, individual animals", "result": "0.77 and 0.91 and 0.42 and 1.31 and 1.18 and 0.68"}, {"measurement": "BI293562_DB71_seg2 normalized Real Time PCR expression", "setting": "day28, individual animals", "result": "0.4 and 0.81 and 2.59 and 0.72 and 1.35 and 0.31"}, {"measurement": "H31045_DB71_seg5 normalized Real Time PCR expression", "setting": "day28, individual animals", "result": "2.88 and 0.83 and 0.57 and 2.23 and 2.41 and 2"}, {"measurement": "H31799_DB71_seg23 normalized Real Time PCR expression", "setting": "day28, individual animals", "result": "1.59 and 0.94 and 0.67 and 1.05 and 1.02 and 0.76"}, {"measurement": "H31883_DB71_seg13 normalized Real Time PCR expression", "setting": "day28, individual animals", "result": "0.97 and 1.02 and 0.86 (2×) and 0.95 and 0.8"}]}]}
